Measurements taken from US20150175666A1, “PEPTIDES DERIVED FROM HIV GP41 FOR TREATING T-CELL MEDIATED PATHOLOGIES” (Yeda Research and Development Co. Ltd., priority 2012, published 2015).
Like-named read-outs stand apart in the source and are kept apart here. Square brackets hold non-standard residues; d marks the D form. Ends that are not written are not given here. rhodamine = not defined here

Legend:
TCR (Jurkat T cells) = experiment: Binding of Rho-labeled peptides to T-cell proteins (cross-linking SDS-PAGE, immunoprecipitation); parameters: species or system human; details: for fluorescent bands of T-cell proteins bound to Rho-peptide (SDS-PAGE): 1 μM Rho-labeled peptide, formaldehyde cross-linked Jurkat lysate
Procedure: Jurkat T cells (4×10^6) were incubated over night at 37° C. in the presence of 1 μM rhodamine-labeled peptide and lysed. The lysate was then incubated overnight with TCRα or GFP antibodies (2 μg) following 2 hours of incubation with protein G-plus Agarose beads (Santa Cruz Biotechnology Inc.). Next, the beads were washed with lysis buffer and boiled for 10 minutes; the protein supernatant was then run in a 12% SDS-PAGE. The presence of coimmunoprecipitated peptide was detected by the Typhoon 9400 variable mode imager.
Jurkat T cells (4×10^6) were incubated over night at 37° C. in the presence of 1 μM rhodamine-labeled pep6 (SEQ ID NO:3) and its mutant control peptide. Next, the cells were washed with PBS, crosslinked with 1% formaldehyde and after 10 minutes a 125 mM glycine solution was added to stop the reaction. Formaldehyde is a well known cross-linking agent used in the characterization of protein-protein interactions. The cells were lysed for 30 minutes on ice in a 300 μl lysis buffer followed by a sonication step. Insoluble material was removed by centrifugation at 3000×g for 4 min at 4° C. The proteins were resolved by 12% SDS-PAGE and proteins bound to the fluorescently labeled peptide were detected by the Typhoon 9400 variable mode imager (Amersham Biosciences). Excitation was set at 532 nm, and fluorescence emission was collected by a TAMRA filter (580 nm±30 nm) at 100 μm resolution and 600 volts. The protein loading amount was confirmed by Western blot to actin.
To investigate the interaction of the peptide with the TCR, 1 μM fluorescently labeled Rho-peptides were incubated with Jurkat T cells and then cross-linked with formaldehyde to maintain the interaction with their target proteins. The cross-linked T-cell lysate was resolved by SDS-PAGE and proteins bound to Rho-peptides were detected by the fluorescence of rhodamine (FIG. 5B). […] Western blot for actin was used to assure equal loading. […] Bound proteins were separated by SDS-PAGE and analyzed for the presence of the fluorescently-labeled peptides.

[1] = target: T1, core peptide of TMD from TCRα, CP (GLRILLLKV; SEQ ID NO: 14) (Mus musculus, UniProt P01849); experiment: Fluorescent measurements of NBD-labeled core peptide of TCRα TMD in LUV; assay type: binding; details: PC:Chol LUV, sequential doses
T1 construct: termed CP (GLRILLLKV); made in house
Procedure: The fluorescence experiments were performed using NBD-labeled core peptides of TCRα (NBD-CP). Fluorescence spectra were obtained at room temperature, with excitation set at 467 nm (10 nm slit) and the emission scan at 500-600 nm (10 nm slits). In a typical experiment, the NBD-CP was first added from a stock solution in DMSO (final concentration of 0.1 μM and a maximum of 0.25% (v/v) DMSO) to a dispersion of PC:Chol LUV (200 μM) in PBS. This was followed by the addition of unlabeled HIV peptides in several sequential doses ranging from 2.5×10-3 μM to 0.4 μM. Fluorescence spectra were obtained before and after the addition of unlabeled HIV peptides. The fluorescence values were corrected by subtracting the corresponding blank (buffer with the same vesicle concentration).
The TCR complex's TMD helices mediate receptor activation through the interactions between basic and acidic residues. […] To investigate this possibility, we utilized NBD fluorescence, which is sensitive to the membrane surroundings; its emission intensity is increased via membrane insertion (Rapaport et al. Embo J. 1995; 14(22):5524-5531). […] Their initial fluorescence emission spectra were first measured in the presence of LUVs alone and then in the presence of several sequential doses of unlabeled peptide and its mutants (SEQ ID NO: 3, 9 and 10) (FIG. 5H).

[2] = test system: T-cell lymphocytes derived from mice spleen cells; experiment: Binding of fluorescently labeled peptides to spleen-derived lymphocytes; assay type: cell-based
From the text: Further, the T-cell binding affinity of peptides having the amino acid sequence of […] (SEQ ID NO:2 and 11; all L- and all D-amino acids, respectively) was examined. […] Spleen derived B cell lymphocytes were used as a control.

[3] = test system: encephalitogenic MOG35-55 reactive T cells (LNCs); experiment: Ex vivo recall response of lymph node cells from MOG35-55/CFA-immunized mice (proliferation, cytokine ELISA); assay type: in vivo, C57Bl/6J mice
Procedure: (§1) Mice were subcutaneously immunized with 150 μg MOG35-55 emulsified in complete Freund's adjuvant (CFA) containing 150 μg Mt H37Ra with or without 0.5 mg/kg HIV peptides. Ten days post immunization, draining lymph nodes were removed and cultured in triplicate in the presence or absence of antigen, as previously described. The cultures were incubated for 72 h at 37° C. [3H] Thymidine ([…]) was added for an additional 16 h of incubation and the cultures were then harvested and counted using a Beta Counter. Pro-inflammatory cytokine analysis of IFNγ, IL-12, and TNFα were determined by ELISA, 24 h after cell activation, according to standard protocols from PharMingen (San Diego, Calif.), as described previously
as §1, with “described. […]” for “described. The cultures were incubated for 72 h at 37° C. [3H]”, “described previously. […]” for “described previously”

[4] = test system: MOG35-55-specific murine line T cells (mMOG35-55 T-cells)
[5] = test system: TCRα on antigen-stimulated mMOG35-55-specific line T cells; experiment: Co-localization of Rho-labeled peptides with TCRα (confocal microscopy); assay type: cell-based, murine; details: activated T cells
Procedure: FITC excitation was set at 488 nm, with the laser set at 5% power and fluorescence was recorded from 502-525 nm. Rhodamine excitation was set at 559 nm, with the laser set at 1% power and the fluorescence data were collected above 580 nm. Each cell was imaged for TCRα staining (denoted in green) and for peptide staining (denoted in red). Using ImageJ, the images (n=20) were set to binary color and the two revised pictures were used to create a new picture of only what merged between them. The merged picture was divided by the revised red picture to give the percentage of co-localization.
Co-localization of the peptide with the TCR was assessed utilizing confocal microscopy (FIG. 5 D-E). Antigen-stimulated mMOG35-55-specific line T cells were probed with antibodies against TCRα followed by staining with secondary FITC-labeled antibodies (left column) and with the Rho-labeled peptide (SEQ ID NO: 3) (middle column). To evaluate the co-localization between the molecules, a merged image was produced (right column). […] As a control, AMP (SEQ ID NO: 13), a non-related antimicrobial peptide (Papo et al. J Biol Chem. 2005; 280(11):10378-10387), was labeled with rhodamine and its localization on T cells was detected.

[6] = MOG35-55 and APCs, peptides 2.5-20 μM

TCR (Jurkat T cells), sequence (P01848 whole entry): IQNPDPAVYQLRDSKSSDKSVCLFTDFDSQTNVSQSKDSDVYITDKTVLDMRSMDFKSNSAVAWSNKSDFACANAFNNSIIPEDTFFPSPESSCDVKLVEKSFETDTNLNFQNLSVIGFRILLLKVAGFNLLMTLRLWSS
TCR (Jurkat T cells), sequence (P01850 whole entry, further chain): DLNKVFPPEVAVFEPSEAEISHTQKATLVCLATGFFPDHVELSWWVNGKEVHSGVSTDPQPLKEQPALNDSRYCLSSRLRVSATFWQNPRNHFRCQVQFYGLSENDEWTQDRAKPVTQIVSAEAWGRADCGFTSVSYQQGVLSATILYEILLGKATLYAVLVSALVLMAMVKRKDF
TCRα on antigen-stimulated mMOG35-55-specific line T cells, sequence (P01849 whole entry): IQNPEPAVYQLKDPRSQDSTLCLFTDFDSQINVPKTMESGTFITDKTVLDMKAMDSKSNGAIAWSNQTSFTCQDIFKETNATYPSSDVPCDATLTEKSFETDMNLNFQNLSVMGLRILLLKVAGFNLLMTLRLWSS

## SNKSLEQIGNHTTGMEGD [SEQ ID NO: 9]
TCR (Jurkat T cells)
  fluorescent bands of T-cell proteins bound to Rho-peptide (SDS-PAGE): neither observed
[1]
  fluorescence emission maxima of NBD-CP upon addition of unlabeled peptide: only a slight increase

## WNHTTWMEWD-NH2 [SHORT PEP 6, WNHTTWMEWD]
[2]
  binding to T-cell lymphocytes versus B cell lymphocytes: preferably bind T-cell lymphocytes
[3]; mouse, in vivo
  ex vivo recall proliferative response of LNCs to MOG35-55: down-regulation
[4]
  IC50: 5 µM
  inhibition of T-cell proliferation (potency in words): still exhibited potent activity

## EQIWNHTTWMEWDREINN-NH2 [SHIFTED PEP 6, EQIWNHTTWMEWDREINN]
[4]
  IC50: 10 µM
[4]; [6]
  inhibition of T-cell proliferation (potency in words): still exhibited potent activity

## TTAVPWNASWSNKSLEQI-NH2 [PEP 1, TTAVPWNASWSNKSLEQI]
[4]
  IC50: > 40 µM
[4]; [6]
  inhibition of T-cell proliferation (potency in words): not active

## WNHTTWMEWD ([dW][dN][dH][dT][dT][dW][dM][dE][dW][dD]) [SEQ ID NO: 11]
[2]
  binding to T-cell lymphocytes versus B cell lymphocytes: preferably bind T-cell lymphocytes
[3]; 0.5 mg/kg peptide, day 10 post immunization
  ex vivo recall proliferative response of LNCs to MOG35-55: down-regulation

## Rho-AMP: AMP (SEQ ID NO: 13) labeled with rhodamine (KLKLLKLLKLLKLLK; also: rhodamine label, site not given here)
[5]
  co-localization with TCRα molecules: found throughout the cell membrane

## LQARILAVERYLKDQQL [ISU, LQARILAVERYLKDQQL, reference compound]
[4]
  IC50: 15 µM

## Rho-pep 6: rhodamine N-terminally labeled pep 6 (SEQ ID NO: 3) (rhodamine-SNKSLEQIWNHTTWMEWD-NH2; reading uncertain)
TCR (Jurkat T cells)
  fluorescent bands of T-cell proteins bound to Rho-peptide (SDS-PAGE): only one major fluorescent band
TCR (Jurkat T cells); Jurkat T cells, GFP antibody as control
  coimmunoprecipitation with TCRα antibodies: coprecipitated with the TCR

## SNKSLEQIWNHTTWMGWG [SEQ ID NO: 10]
[1]
  fluorescence emission maxima of NBD-CP upon addition of unlabeled peptide: only a slight increase

## WNASWSNKSLEQIWNHT-NH2 [PEP 8, WNASWSNKSLEQIWNHT]
[4]
  IC50: 15 µM

## CC[C@H](C)[C@H](NC(=O)[C@H](CCC(N)=O)NC(=O)[C@H](CCC(=O)O)NC(=O)[C@H](CC(C)C)NC(=O)[C@H](CO)NC(=O)[C@H](CCCCN)NC(=O)[C@H](CC(N)=O)NC(=O)[C@H](N)CO)C(=O)N[C@@H](Cc1c[nH]c2ccccc12)C(=O)N[C@@H](CC(N)=O)C(=O)N[C@@H](Cc1c[nH]cn1)C(=O)N[C@H](C(=O)N[C@H](C(=O)N[C@@H](Cc1c[nH]c2ccccc12)C(=O)N[C@@H](CCSC)C(=O)N[C@@H](CCC(=O)O)C(=O)N[C@@H](Cc1c[nH]c2ccccc12)C(=O)N[C@H](CC(=O)O)C(N)=O)[C@@H](C)O)[C@@H](C)O [D-PEP 6, SNKSLEQIWNHTTWMEWD]
[4]
  IC50: 3 µM
